The source of these data is patent US10323041B2, “Bicyclic derivatives, a process for their preparation and pharmaceutical compositions containing them” (LES LABORATOIRES SERVIER, priority 2015, dated 2019).

Each structure is given as a SMILES string.

One test deals with Mcl-1 protein (Homo sapiens, UniProt Q07820). The experiment in a line: Inhibition of Mcl-1 by the fluorescence polarisation technique. Format: binding. The conditions noted are these: Method 1 (not underlined) or Method 2 (underlined), underlining not visible, first value where cell prints two; for IC50: read-out: IC50 (M) Mcl-1 FP. The method, boiled down: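 Competitive FP with fluorescein-labelled peptide ligand, 5% DMSO, ~2 h at room temperature, 11-point curves, 4-parameter IC50. Method 1: 1 nM ligand, 5 nM Mcl-1 in HEPES pH 7.4 buffer; Method 2: 10 nM ligand, 10 nM Mcl-1 in phosphate pH 7.4 buffer, 50 μM unlabelled ligand as full-inhibition control.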
Chain of Mcl-1 protein (Q07820 whole entry): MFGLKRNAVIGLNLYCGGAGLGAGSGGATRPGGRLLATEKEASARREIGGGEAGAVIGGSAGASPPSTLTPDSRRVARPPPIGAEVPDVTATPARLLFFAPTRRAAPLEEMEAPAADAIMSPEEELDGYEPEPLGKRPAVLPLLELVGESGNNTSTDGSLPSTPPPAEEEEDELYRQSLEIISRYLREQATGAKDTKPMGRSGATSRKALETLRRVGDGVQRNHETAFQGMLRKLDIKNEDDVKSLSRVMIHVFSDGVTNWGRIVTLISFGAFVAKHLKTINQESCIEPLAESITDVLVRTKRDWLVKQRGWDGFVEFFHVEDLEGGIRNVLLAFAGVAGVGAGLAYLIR
Background: In fluorescence polarisation assays a small probe gives low polarisation when free and higher when bound to something large.

For test [1], the system named is H929 multiple myeloma tumour line. The experiment in a line: In vitro cytotoxicity, Microculture Tetrazolium Assay on H929 cells. The class given is cell-based. The conditions noted are these: Homo sapiens, NCI-H929, exposed for 48 hours, cell viability, read-out: IC50 (M) MTT H929. On the procedure:
The cytotoxicity studies were carried out on the H929 multiple myeloma tumour line.
The cells are distributed onto microplates and exposed to the test compounds for 48 hours. The cell viability is then quantified by a colorimetric assay, the Microculture Tetrazolium Assay (Cancer Res., 1987, 47, 939-942).

For a further test, the system named is cleaved form of PARP. As to the kind of experiment: Quantification of the cleaved form of PARP in vivo. Set-up: species or system mice (SCID strain). The conditions noted are these: AMO-1 xenograft in SCID mice; cleaved PARP in tumour lysates, treated / control; intraveinous or oral routes. On the procedure:
The ability of the compounds of the invention to induce apoptosis, by measuring cleaved PARP levels, is evaluated in a xenograft model of AMO-1 multiple myeloma cells.
1.10^7 AMO-1 cells are grafted sub-cutaneously into immunosuppressed mice (SCID strain). 12 to 14 days after the graft, the animals are treated by intraveinous or oral routes with the various compounds. After treatment, the tumour masses are recovered and lysed, and the cleaved form of PARP is quantified in the tumour lysates.
The quantification is carried out using the “Meso Scale Discovery (MSD) ELISA platform” test, which specifically assays the cleaved form of PARP. It is expressed in the form of an activation factor corresponding to the ratio between the quantity of cleaved PARP in the treated mice divided by the quantity of cleaved PARP in the control mice.

As a reminder, the IC50 is the midpoint of a concentration-inhibition curve. As to `COc1ccccc1-c1nccc(COc2ccccc2CC(Oc2cccc3sc(-c4ccc(F)cc4)c(-c4ccc(OCCN5CCN(C)CC5)c(Cl)c4C)c23)C(=O)O)n1` (single isomer, unassigned) [Example 53], the figures for the IC50 (on Mcl-1 protein; in test [1]) were 2.2e-08 M and 2.53e-08 M, respectively. In addition, the PARP fold in the test with cleaved form of PARP was 40.2 fold.
On to `COc1ccccc1-c1nccc(COc2ccccc2C[C@@H](Oc2ncnc3oc(-c4ccc(F)cc4)c(-c4ccc(OCCN5CCN(C)CC5)c(Cl)c4C)c23)C(=O)O)n1` [Example 1, (2R)-2-{[5-{3-chloro-2-methyl-4-[2-(4-methylpiperazin-1-yl)ethoxy]phenyl}-6-(4-fluorophenyl)furo[2,3-d]pyrimidin-4-yl]oxy}-3-(2-{[2-(2-methoxyphenyl)pyrimidin-4-yl]methoxy}phenyl)propanoic acid], for which the IC50 at Mcl-1 protein stood at 3.8e-09 M; in test [1], 2.41e-08 M. Also, the PARP fold with cleaved form of PARP is on record as 157.5 fold.
Taken in the same sequence, the figures for `CCc1c(-c2c(-c3ccc(F)cc3)oc3ncnc(O[C@H](Cc4ccccc4OCc4ccnc(-c5ccccc5OC)n4)C(=O)O)c23)ccc(OCCN2CCN(C)CC2)c1Cl` [Example 2, (2R)-2-{[5-{3-chloro-2-ethyl-4-[2-(4-methylpiperazin-1-yl)ethoxy]phenyl}-6-(4-fluorophenyl)furo[2,3-d]pyrimidin-4-yl]oxy}-3-(2-{[2-(2-methoxyphenyl)pyrimidin-4-yl]methoxy}phenyl)propanoic acid] were 6e-09 M, 1.45e-08 M and 216.3 fold.
The corresponding values for `COc1ccccc1-c1nccc(COc2ccccc2CC(Nc2ncnc3oc(-c4ccc(F)cc4)c(-c4ccc(OCCN5CCN(C)CC5)c(Cl)c4C)c23)C(=O)O)n1` [Example 8, N-[(5Sa)-5-{3-chloro-2-methyl-4-[2-(4-methylpiperazin-1-yl)ethoxy]phenyl}-6-(4-fluorophenyl)furo[2,3-d]pyrimidin-4-yl]-2-{[2-(2-methoxyphenyl)pyrimidin-4-yl]methoxy}-D-phenylalanine] are 6.6e-09 M, 1.78e-08 M and 55.4 fold.
In the case of `COc1ccccc1-c1nccc(COc2ccccc2CC(Oc2cc(F)cc3oc(-c4ccc(F)cc4)c(-c4ccc(OCCN5CCN(C)CC5)c(Cl)c4C)c23)C(=O)O)n1` [Example 67, (2R)-2-{[(3Sa)-3-{3-chloro-2-methyl-4-[2-(4-methylpiperazin-1-yl)ethoxy]phenyl}-6-fluoro-2-(4-fluorophenyl)-1-benzofuran-4-yl]oxy}-3-(2-{[2-(2-methoxyphenyl)pyrimidin-4-yl]methoxy}phenyl)propanoic acid], the IC50 is 1.4e-08 M at Mcl-1 protein and 8.36e-08 M in test [1]. The PARP fold with cleaved form of PARP turned out to be 29.3 fold.
For `COc1ccccc1-c1nccc(COc2ccccc2C[C@@H](Oc2ncnc3c2c(-c2ccc(OCCN4CCN(C)CC4)c(Cl)c2C)c(-c2ccc(F)cc2)n3C)C(=O)O)n1` [Example 72, (2R)-2-[5-[3-chloro-2-methyl-4-[2-(4-methylpiperazin-1-yl)ethoxy]phenyl]-6-(4-fluorophenyl)-7-methyl-pyrrolo[2,3-d]pyrimidin-4-yl]oxy-3-[2-[[2-(2-methoxyphenyl)pyrimidin-4-yl]methoxy]phenyl]propanoic acid], the IC50 at Mcl-1 protein amounted to 1.55e-08 M; in test [1], 3.2e-08 M. Besides, the PARP fold with cleaved form of PARP was determined as 15.7 fold.
For the compound `COc1ccccc1-c1nccc(COc2ccccc2C[C@@H](Nc2ccnc3nc(-c4ccc(F)cc4)c(-c4ccc(OCCN5CCN(C)CC5)c(Cl)c4C)n23)C(=O)O)n1` [Example 102, N-[3-{3-chloro-2-methyl-4-[2-(4-methylpiperazin-1-yl)ethoxy]phenyl}-2-(4-fluorophenyl)imidazo[1,2-a]pyrimidin-5-yl]-2-{[2-(2-methoxyphenyl)pyrimidin-4-yl]methoxy}-D-phenylalanine], on Mcl-1 protein, the “IC50 (M) Mcl-1 FP” value is recorded as “no curve”. The IC50 in test [1] is more than 3e-05 M.
